Values quoted from earlier work, collected in US20100284933A1, “Biomarkers of Multiple Sclerosis” (Biogen Idec MA Inc., priority 2006, published 2010).

Key:
[1] = target: PBRs (Homo sapiens, UniProt P30536); conditions: background statement
[2] = tested on: CBRs; conditions: background statement

PBRs, sequence (P30536 whole entry): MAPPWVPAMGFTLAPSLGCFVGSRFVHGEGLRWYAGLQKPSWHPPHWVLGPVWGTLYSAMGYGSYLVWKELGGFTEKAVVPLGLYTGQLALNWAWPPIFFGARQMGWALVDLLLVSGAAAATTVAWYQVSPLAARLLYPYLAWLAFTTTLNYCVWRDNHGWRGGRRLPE

## CN1C(=O)CN=C(c2ccc(Cl)cc2)c2cc(Cl)ccc21 [Ro 5-4864, 4′-chlorodiazepam]
[1]
  affinity for PBRs: high affinity
[2]
  affinity for CBRs: negligible affinity

## CCC(C)N(C)C(=O)c1cc2ccccc2c(-c2ccccc2Cl)n1 (stereo not shown) [PK 11195]
[1]
  affinity for PBRs: high affinity
[2]
  affinity for CBRs: negligible affinity
